Target: Bromodomain-containing protein 4 (Homo sapiens, UniProt O60885)
Assay: A mix consisting of 15 nM GST-BRD4-BD1 protein (aa 44-168) or 150 nM GST-BRD4-BD2 (aa 333-460) and 15 nM biotinylated Acetyl-Histone H4 (Lys5, 8, 12, 16) peptide is prepared in assay buffer (50 mM HEPES pH=7.4; 25 mM NaCl; 0.05% Tween 20; 0.1% bovine serum albumin (BSA); 10 mM dithiothreitol (DTT)). 6 μl of the mix is added to the compound dilutions. Subsequently, 6 μl of premixed AlphaLISA Glutathione Acceptor Beads and AlphaScreen Streptavidin Donor Beads from PerkinElmer (in assay buffer at a concentration of 10 μg/ml each) are added and the samples are incubated for 30 min at RT in the dark (shaking 300 rpm). Afterwards, the signal is measured in a PerkinElmer Envision HTS Multilabel Reader using the AlphaScreen protocol from PerkinElmer.Each plate contains negative controls where biotinylated Acetyl-Histone H4 peptide and GST-BRD4-BD1 or GST-BRD4-BD2 are left out and replaced by assay buffer. Negative control values are entered as low basis value when using the software GraphPad Prism for calculations. Furthermore, a positive control (probe molecule JQ1+ with protein/peptide mix) is pipetted. Determination of IC50 values are carried out using GraphPad Prism 3.03 software (or updates thereof).

In the case of CNc1nc(-c2nn(C)c(C)c2Oc2ccccc2)cn2c(C)nnc12, the IC50 is reported as 8 nM.

Reference: ChEMBL document CHEMBL5727121, “Substituted [1,2,4]triazolo[4,3-a]pyrazines as BRD4 inhibitors” (2019)
